Data set [1] has as its system human pancreatic cancer cells (PANC-1) subcutaneous xenograft. The experiment in a line: pancreatic cancer subcutaneous xenograft animal model, intratumoral injection. In kind it is in vivo, mice (BALB/c-nu/nu). Particulars: PANC-1 xenograft, intratumoral 5 mg/kg once every other day, 25 days; for Weight of tumor (g) (mean ± SD): control 1.2 ± 0.11; for Volume of tumor (mm^3) (mean ± SD): control 1431.72 ± 174.33. On the procedure: Experimental animals: 4-6 weeks old female immunodeficiency mice (BALB/c-nu/nu, Beijing Vital River Laboratory Animal Technology Co., Ltd.).
Subcutaneous xenograft animal model. The number of cells inoculated subcutaneously vin mice was about 2×10^6/200 μL. When the volume of the subcutaneous tumor was greater than 100 mm^3, the mice were randomly divided into groups and subjected to treatment. When the mass volume of the tumors in model control group reached 2000 mm^3 or the animal dies, the treatment ended. The animals were dissected, the tumors were taken out, and the weight and volume of the tumors were measured. During the period of the entire experiment, the mice were observed and the body weight was measured every other day.
The method used in the efficacy test on the pancreatic cancer subcutaneous xenograft animal model was as described in Example 5. The pancreatic cancer cells were human pancreatic cancer cells (PANC-1), and the route of administration was intratumoral injection. The experimental groups were model control group and polypeptide or derivative thereof treatment groups (N1-N12). The drug dosage of the N1-N12 treatment group was 5mg/kg, once every other day, and the treatment time was 25 days.

Data set [2] is described as follows: effect on coagulation function in mice (ACT). In kind it is in vivo, C57BL/6J mice. Particulars: 200 mg/kg tail vein once a day until Day 24, blood on Day 25; control group 73.50 ± 7.15. On the procedure: C57BL/6J mice were used as experimental subjects (purchased from Chengdu Dashuo Experimental Animal Co., Ltd., male, weighing 16-17 g). Sterile saline or peptide drugs were injected via the tail vein once a day until Day 24. The mice in the control group were injected with sterile saline, and the mice in the administration groups (N1-N12) were injected with polypeptide drugs (200 mg/kg). There were three experimental animals in each group. On Day 25, the eyeballs were removed and blood ([…]) was taken. The coagulation function of the mice was detected by the Abbott i-STAT blood gas analyzer with the ACT test card.

Ends that are not written are not given here. PEG = not defined here

Take “N1: polypeptide with the amino acid sequence set forth in SEQ ID NO: 1 (YRVRFLAKENVTQDAEDN)”: in data set [1], the “Weight of tumor (g) (mean ± SD)” value is on record as 0.52 ± 0.13 g and the “Volume of tumor (mm^3) (mean ± SD)” value was found to be 704.1 ± 152.43 mm^3. The “Activated clotting time (s) (mean ± SD)” value in data set [2] is 73.64 ± 9.31 s.

In the case of “N2: SEQ ID NO: 1 with deletion of one amino acid (position 18) at the carboxyl terminal (YRVRFLAKENVTQDAED)”, in data set [1], the “Weight of tumor (g) (mean ± SD)” value came out at 0.72 ± 0.12 g and the “Volume of tumor (mm^3) (mean ± SD)” value was 761.37 ± 150.52 mm^3. Moreover, the “Activated clotting time (s) (mean ± SD)” value in data set [2] came to 74.82 ± 9.62 s.

On to “N3: SEQ ID NO: 1 with deletion of position 18 and PEG modification at the amino terminal ({PEG}-YRVRFLAKENVTQDAED; reading uncertain)”, for which, in data set [1], the “Weight of tumor (g) (mean ± SD)” value was 0.6 ± 0.1 g and the “Volume of tumor (mm^3) (mean ± SD)” value was determined as 695.11 ± 111.9 mm^3. In data set [2], the “Activated clotting time (s) (mean ± SD)” value amounted to 72.55 ± 8.27 s.

For “N4: SEQ ID NO: 1 with deletion of positions 15-18 and positions 1-3 (RFLAKENVTQD)”, in data set [1], the “Weight of tumor (g) (mean ± SD)” value came to 0.62 ± 0.07 g and the “Volume of tumor (mm^3) (mean ± SD)” value came to 673.03 ± 157.33 mm^3. The “Activated clotting time (s) (mean ± SD)” value in data set [2] was found to be 73.64 ± 8.12 s.

For “N5: SEQ ID NO: 1 with addition of one amino acid at the carboxyl terminal and deletion of positions 1-3 (RFLAKENVTQDAEDNC)”, in data set [1], the “Weight of tumor (g) (mean ± SD)” value worked out at 0.54 ± 0.1 g and the “Volume of tumor (mm^3) (mean ± SD)” value worked out at 696.52 ± 127.05 mm^3. Also, in data set [2], the “Activated clotting time (s) (mean ± SD)” value was determined as 72.91 ± 8.04 s.

On to “N6: SEQ ID NO: 1 with deletion of four amino acids at the carboxyl terminal (positions 15-18) (YRVRFLAKENVTQD)”, for which, in data set [1], the “Weight of tumor (g) (mean ± SD)” value is 0.61 ± 0.07 g and the “Volume of tumor (mm^3) (mean ± SD)” value is on record as 538.26 ± 121.04 mm^3. For the same substance, the “Activated clotting time (s) (mean ± SD)” value in data set [2] was determined as 74.09 ± 8.51 s.

As to “N7: SEQ ID NO: 1 with addition of one amino acid at the carboxyl terminal and substitution A15R (YRVRFLAKENVTQDREDNC)”, in data set [1], the “Weight of tumor (g) (mean ± SD)” value worked out at 0.74 ± 0.09 g and the “Volume of tumor (mm^3) (mean ± SD)” value is given as 671.47 ± 150.71 mm^3. Also, the “Activated clotting time (s) (mean ± SD)” value in data set [2] came to 73.27 ± 8.43 s.

As to “N8: SEQ ID NO: 1 with deletion of positions 15-18 and positions 3, 4 and 11 (YRFLAKENTQD)”, in data set [1], the “Weight of tumor (g) (mean ± SD)” value is reported as 0.59 ± 0.11 g and the “Volume of tumor (mm^3) (mean ± SD)” value is given as 769.54 ± 160.54 mm^3. The “Activated clotting time (s) (mean ± SD)” value in data set [2] stood at 74 ± 8.92 s.

For the substance “N9: SEQ ID NO: 1 with deletion of positions 15-18 and PEG modification at the amino terminal ({PEG}-YRVRFLAKENVTQD; reading uncertain)”, in data set [1], the “Weight of tumor (g) (mean ± SD)” value turned out to be 0.5 ± 0.09 g and the “Volume of tumor (mm^3) (mean ± SD)” value is on record as 765.6 ± 105.04 mm^3. Also, the “Activated clotting time (s) (mean ± SD)” value in data set [2] is 72.09 ± 8.07 s.

For “N10: SEQ ID NO: 1 with deletion of positions 15-18 and 1-3 and PEG modification at the carboxyl terminal (RFLAKENVTQD-{PEG}; reading uncertain)”, in data set [1], the “Weight of tumor (g) (mean ± SD)” value turned out to be 0.57 ± 0.11 g and the “Volume of tumor (mm^3) (mean ± SD)” value was 667.99 ± 188.73 mm^3. In addition, in data set [2], the “Activated clotting time (s) (mean ± SD)” value is recorded as 73.27 ± 7.36 s.

On to “N11: SEQ ID NO: 1 with deletion of positions 15-18 and 1-3 and PEG modification at the amino terminal ({PEG}-RFLAKENVTQD; reading uncertain)”, for which, in data set [1], the “Weight of tumor (g) (mean ± SD)” value was determined as 0.62 ± 0.12 g and the “Volume of tumor (mm^3) (mean ± SD)” value was 785.02 ± 147.38 mm^3. In addition, the “Activated clotting time (s) (mean ± SD)” value in data set [2] amounted to 75.18 ± 7.99 s.

As for “N12: SEQ ID NO: 1 with deletion of position 18 and positions 1-2 (VRFLAKENVTQDAED)”, in data set [1], the “Weight of tumor (g) (mean ± SD)” value was 0.71 ± 0.09 g and the “Volume of tumor (mm^3) (mean ± SD)” value came out at 863.2 ± 129.61 mm^3. Moreover, in data set [2], the “Activated clotting time (s) (mean ± SD)” value was determined as 75.55 ± 7.61 s.

The values are drawn from patent US20220280594A1, “APPLICATION OF POLYPEPTIDE OR DERIVATIVE THEREOF” (CHENGDU HUITAI BIOMEDICINE CO., LTD., priority 2019, published 2022).
